“Also recorded” adds a separate entry of the source. Where two headings read alike, the source gives them in different places.
Experiments:
C57BL/6J male mice = assay: Mouse forced swim test; type: in vivo; conditions: 30 min prior to testing
[1] = target: T1, human 5-HT2C (INI) receptor (Homo sapiens, UniProt P28335); assay: Calcium flux assay, 5-HT2C; conditions: for 5-HT2C agonist efficacy (in words): calcium flux; for Selectivity 2B/2C / Selectivity 2A/2C: EC50 ratio; for EC50: NA: Emax ≤ 12%; for Emax: read-out: 5-HT2C Emax, percent of maximal activation by 5-HT
T1 sequence (P28335 33-458): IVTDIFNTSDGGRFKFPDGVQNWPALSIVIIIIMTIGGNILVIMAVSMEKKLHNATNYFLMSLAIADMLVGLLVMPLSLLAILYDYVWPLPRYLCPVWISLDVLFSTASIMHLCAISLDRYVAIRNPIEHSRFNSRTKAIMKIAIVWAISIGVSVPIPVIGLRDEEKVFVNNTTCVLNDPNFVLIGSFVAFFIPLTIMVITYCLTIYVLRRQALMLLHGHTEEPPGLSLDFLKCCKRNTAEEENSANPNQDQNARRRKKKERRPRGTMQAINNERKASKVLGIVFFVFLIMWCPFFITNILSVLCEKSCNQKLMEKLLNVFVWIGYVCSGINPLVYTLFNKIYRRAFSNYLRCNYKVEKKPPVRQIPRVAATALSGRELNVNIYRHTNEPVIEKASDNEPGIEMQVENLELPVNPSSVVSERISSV

human 5-HT2B receptor = human 5-HT2B receptor (Homo sapiens, UniProt P41595); assay: Calcium flux assay, 5-HT2B; conditions: for EC50: 5-HT2B EC50, HEK-293, NA: Emax ≤ 12%; for Emax: read-out: 5-HT2B Emax, percent of maximal activation by 5-HT
Sequence of human 5-HT2B receptor (P41595 whole entry): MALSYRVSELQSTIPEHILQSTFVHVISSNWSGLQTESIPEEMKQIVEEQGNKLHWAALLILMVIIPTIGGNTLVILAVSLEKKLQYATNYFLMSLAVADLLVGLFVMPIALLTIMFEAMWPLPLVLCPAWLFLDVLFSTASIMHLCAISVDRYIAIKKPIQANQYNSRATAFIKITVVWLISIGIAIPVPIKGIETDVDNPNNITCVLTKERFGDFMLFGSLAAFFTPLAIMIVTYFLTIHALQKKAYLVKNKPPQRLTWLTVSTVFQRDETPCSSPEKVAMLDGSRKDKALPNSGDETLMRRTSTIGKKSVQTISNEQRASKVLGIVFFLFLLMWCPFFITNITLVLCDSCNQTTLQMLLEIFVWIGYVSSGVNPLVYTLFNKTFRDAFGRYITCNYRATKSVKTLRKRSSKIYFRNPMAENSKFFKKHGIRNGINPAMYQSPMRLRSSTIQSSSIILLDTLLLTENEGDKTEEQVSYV

human 5-HT2A receptor = human 5-HT2A receptor (Homo sapiens, UniProt P28223); assay: Calcium flux assay, 5-HT2A; conditions: for EC50: 5-HT2A EC50, HEK-293, NA: Emax ≤ 12%; for Emax: read-out: 5-HT2A Emax, percent of maximal activation by 5-HT
Sequence of human 5-HT2A receptor (P28223 whole entry): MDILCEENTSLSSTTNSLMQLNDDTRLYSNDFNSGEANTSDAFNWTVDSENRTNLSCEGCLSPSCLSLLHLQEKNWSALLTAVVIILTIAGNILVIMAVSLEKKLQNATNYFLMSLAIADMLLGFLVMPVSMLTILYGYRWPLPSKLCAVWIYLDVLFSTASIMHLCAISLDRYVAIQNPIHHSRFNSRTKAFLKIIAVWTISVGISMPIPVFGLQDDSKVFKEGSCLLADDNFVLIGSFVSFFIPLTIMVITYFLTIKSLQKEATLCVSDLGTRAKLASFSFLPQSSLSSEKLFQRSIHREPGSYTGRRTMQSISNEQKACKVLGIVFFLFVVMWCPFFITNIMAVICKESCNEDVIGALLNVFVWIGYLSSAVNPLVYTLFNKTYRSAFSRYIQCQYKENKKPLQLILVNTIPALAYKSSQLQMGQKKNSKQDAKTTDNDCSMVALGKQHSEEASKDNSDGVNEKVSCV

MAO = conditions: tryptamine potentiation model; cited from earlier work
[2] = 5-HT2C EC50, HEK-293, Table 2 section 2
[3] = 5-HT2C EC50, HEK-293, Table 2 section 4
[4] = Table 2 section 1 (independent campaign)
[5] = Table 2 section 2 (independent campaign)
[6] = 5-HT2C EC50, HEK-293, Table 2 section 1

CN[C@H]1CC[C@@H](c2ccc(Cl)c(Cl)c2)c2ccccc21 [compound 92, sertraline, reference compound]
immobility time (in words) (C57BL/6J male mice; 10 mg/kg i.p., positive control, p < 0.001): significant decrease in immobility; also recorded: significantly reduced the immobility time

Cl.NC[C@H]1C[C@@H]1c1ccccc1 [(+)-14a, (+)-trans-(S,S)-(2-Phenylcyclopropyl)methylamine Hydrochloride]
5-HT2C agonist efficacy (in words) [1]: full agonists

Cc1cccc([C@H]2C[C@@H]2CN)c1.Cl (relative stereo) [compound 37, trans-[2-(3-Methylphenyl)cyclopropyl]methylamine Hydrochloride]
immobility time (in words) (C57BL/6J male mice; 10–60 mg/kg i.p., vs vehicle): decreased immobility time; also recorded: significant decrease in immobility; also recorded: dose-dependent decrease in immobility time

Cl.NC[C@H]1C[C@@H]1c1ccc(C(F)(F)F)cc1 (relative stereo) [compound 45, trans-[2-(4-Trifluoromethylphenyl)cyclopropyl]methylamine Hydrochloride]
Selectivity 2B/2C ([1]; Table 2 section 1): > 1

Cl.NC[C@H]1C[C@@H]1c1ccc(F)cc1 (relative stereo) [compound 41, trans-[2-(4-Fluorophenyl)cyclopropyl]methylamine Hydrochloride]
EC50 [1, 2]: 8.4 nM
EC50 [1, 3]: 11 nM
Selectivity 2A/2C ([1]; Table 2 section 1): 202
Selectivity 2B/2C ([1]; Table 2 section 1): 57
Selectivity 2A/2C ([1]; Table 2 section 2): 77
Selectivity 2B/2C ([1]; Table 2 section 2): 6.8
Emax ([1]; Table 2 section 4): 96%
EC50 (human 5-HT2B receptor; Table 2 section 1): 312 nM
EC50 (human 5-HT2B receptor; Table 2 section 2): 57 nM
Emax (human 5-HT2B receptor; Table 2 section 1): 95%
EC50 (human 5-HT2A receptor; [4]): 1100 nM
EC50 (human 5-HT2A receptor; [5]): 646 nM
Emax (human 5-HT2A receptor; Table 2 section 2): 80%
Emax (human 5-HT2A receptor; Table 2 section 4): 68%

Cl.NC[C@H]1C[C@@H]1c1ccccc1F (relative stereo) [compound 27, trans-[2-(2-Fluorophenyl)cyclopropyl]methylamine Hydrochloride]
EC50 [1, 6]: 37 nM
EC50 [1, 3]: 33 nM
Selectivity 2A/2C ([1]; Table 2 section 1): > 27
Selectivity 2B/2C ([1]; Table 2 section 1): 42
Selectivity 2A/2C ([1]; Table 2 section 2): 32
Selectivity 2B/2C ([1]; Table 2 section 2): 6.8
Emax ([1]; Table 2 section 1): 94%
EC50 (human 5-HT2B receptor; Table 2 section 1): 1550 nM
EC50 (human 5-HT2B receptor; Table 2 section 2): 199 nM
Emax (human 5-HT2B receptor; Table 2 section 2): 89%
Emax (human 5-HT2B receptor; Table 2 section 4): 84%
EC50 (human 5-HT2A receptor; [4]): > 1000 nM
EC50 (human 5-HT2A receptor; [5]): 942 nM
EC50 (human 5-HT2A receptor; Table 2 section 4 (independent campaign)): 681 nM
Emax (human 5-HT2A receptor; Table 2 section 2): 79%
Emax (human 5-HT2A receptor; Table 2 section 4): 62%

Cl.NC[C@H]1C[C@@H]1c1cccc(F)c1 (relative stereo) [compound 34, trans-[2-(3-Fluorophenyl)cyclopropyl]methylamine Hydrochloride]
EC50 [1, 6]: 3.9 nM
Selectivity 2A/2C ([1]; Table 2 section 1): 450
Selectivity 2B/2C ([1]; Table 2 section 1): 13
Selectivity 2A/2C ([1]; Table 2 section 2): 225
Selectivity 2B/2C ([1]; Table 2 section 2): 4.0
Emax ([1]; Table 2 section 2): 97%
Emax ([1]; Table 2 section 4): 96%
EC50 (human 5-HT2B receptor; Table 2 section 1): 51 nM
EC50 (human 5-HT2B receptor; Table 2 section 2): 13 nM
Emax (human 5-HT2B receptor; Table 2 section 1): 106%
Emax (human 5-HT2B receptor; Table 2 section 2): 96%
EC50 (human 5-HT2A receptor; [4]): 1770 nM
EC50 (human 5-HT2A receptor; [5]): 733 nM
Emax (human 5-HT2A receptor; Table 2 section 4): 73%

Cl.NC[C@@H]1C[C@H]1c1ccccc1Br (relative stereo) [compound 29, trans-[2-(2-Bromophenyl)cyclopropyl]methylamine Hydrochloride]
EC50 [1, 6]: 2.8 nM
Selectivity 2A/2C ([1]; Table 2 section 1): 206
Selectivity 2B/2C ([1]; Table 2 section 1): 54
Emax ([1]; Table 2 section 1): 93%
EC50 (human 5-HT2B receptor; Table 2 section 1): 154 nM
EC50 (human 5-HT2A receptor; [4]): 585 nM

Cl.NC[C@@H]1C[C@H]1c1ccccc1 [(−)-14a, (−)-trans-(R,R)-(2-Phenylcyclopropyl)methylamine Hydrochloride]
Selectivity 2A/2C ([1]; Table 1 section 2): > 10

Cl.NC[C@@H]1C[C@H]1c1ccccc1 (relative stereo) [14a, trans-(2-Phenylcyclopropyl)methylamine Hydrochloride]
5-HT2C agonist efficacy (in words) [1]: full agonists
MAO inhibitory activity (MAO): devoid of MAO inhibitory activity

C[C@H]1CNCCc2ccc(Cl)cc21 [compound 7, (1R)-8-chloro-2,3,4,5-tetrahydro-1-methyl-1H-3-benzazepine, reference compound]
Emax ([1]; Table 2 section 4): 96%
Emax (human 5-HT2A receptor; Table 2 section 4): 33%

CC(C)N[C@@H]1C[C@H]1c1ccccc1 (relative stereo) [compound 18, trans-N-Isopropyl-(2-phenylcyclopropyl)amine]
EC50 ([1]; 5-HT2C EC50, HEK-293 stably transfected, Table 1 section 2): 3420 nM
Emax ([1]; Table 1 section 2): 18%

Cl.NC[C@H]1C[C@@H]1c1ccccc1Cl (relative stereo) [compound 28, trans-[2-(2-Chlorophenyl)cyclopropyl]methylamine Hydrochloride]
EC50 [1, 2]: 5.5 nM
Selectivity 2A/2C ([1]; Table 2 section 1): 79
Selectivity 2B/2C ([1]; Table 2 section 1): 16
Emax ([1]; Table 2 section 1): 98%
EC50 (human 5-HT2B receptor; Table 2 section 1): 84 nM
EC50 (human 5-HT2A receptor; [4]): 403 nM
Emax (human 5-HT2A receptor; Table 2 section 2): 87%

N[C@@H]1C[C@H]1c1ccccc1 (racemic) [compound 9, tranylcypromine, reference compound]
5-HT2C agonist efficacy (in words) [1]: full agonists

From publication PMC2832311 (Journal of medicinal chemistry, 2009)
